Test results reported in patent US6139862A, “Pharmaceutical dipeptide compositions and methods of use thereof” (priority 1998, dated 2000).

Settings: in vivo
Text: Due to its simple nature, the dipeptide is rather inexpensive to manufacture.

CC[C@H](C)[C@H](N)C(=O)N[C@@H](Cc1c[nH]c2ccccc12)C(=O)O [Ile-Trp, L-Ile-L-Trp]
significant side effects from the use of the dipeptide: not found any significant side effects
